Measurements from US20230220443A1, “CHARACTERIZATION OF S-ADENOSYL-L-METHIONINE-CONSUMING ENZYMES WITH 1-STEP EZ-MTASE: A UNIVERSAL COUPLED-ASSAY” (ALBERT EINSTEIN COLLEGE OF MEDICINE, priority 2017, published 2023).

Experiments:
GsSDMT = molecular target: T1, GsSDMT (Galdieria sulphuraria, UniProt M2XPA0); assay: 1-Step EZ-MTase UV-based coupled assay, GsSDMT kinetics; assay type: biochemical; settings: for Km / kcat: pH=7.80, co-substrate saturating
T1 sequence (M2XPA0 2-297): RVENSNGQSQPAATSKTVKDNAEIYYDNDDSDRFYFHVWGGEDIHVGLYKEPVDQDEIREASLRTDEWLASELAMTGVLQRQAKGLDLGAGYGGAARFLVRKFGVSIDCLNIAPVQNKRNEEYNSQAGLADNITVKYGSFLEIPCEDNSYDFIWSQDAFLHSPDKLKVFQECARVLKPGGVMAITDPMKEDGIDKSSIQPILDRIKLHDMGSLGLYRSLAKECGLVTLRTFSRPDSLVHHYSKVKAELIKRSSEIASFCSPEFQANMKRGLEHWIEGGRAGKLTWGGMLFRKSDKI
Description: Kinetic behavior for sarcosine against GsSDMT (SAM sat.)—Experiments were conducted following matching CePRMT5 protocol above. Briefly, the 100-μL mixtures from a same row contained 100 mM phosphate buffer pH=7.80, 1 mM βME, 5% glycerol, 100 μM MgCl2, 4 μM coupling deaminase TM0936, 976 nM GsSDMT and various sarcosine concentrations (0.5-12.5 mM; in the first well, sarcosine was omitted to account for background signal—natural decomposition of SAM). Reactions started upon addition of SAM (750 μM saturating final concentration), 60-μL volumes were transferred onto UV plate and absorbance was recorded. Initial rates were first corrected for background signal, and then plotted against sarcosine concentrations. Fit to the Michaelis-Menten equation provided corresponding kinetic parameters.
Kinetic behavior for SAM against GsSDMT (sarcosine sat.)—Experiments were conducted following matching CePRMT5 protocol above. Briefly, the measurements consisted of two experimental subsets: MTase reactions (both SAM and sarcosine added) and MTase blanks (SAM was added without sarcosine to account for natural SAM decomposition). The 100-μL reaction mixtures from a same row contained 100 mM phosphate buffer pH=7.80, 1 mM βME, 5% glycerol, 100 μM MgCl2, 4 μM coupling deaminase TM0936, 195 nM GsSDMT and various SAM concentrations (49.9-750.2 μM). Reactions started upon addition of either sarcosine (10 mM saturating final concentration; MTase reactions) or water (MTase blanks), 60-μL volumes were transferred onto UV plate and absorbance was recorded at 263 nm. Initial rates were first corrected for background signal, and then plotted against SAM concentrations. Fit to the Michaelis-Menten equation provided corresponding kinetic parameters.
(§1) Kinetic behavior for 8-aza-SAM against MTases (acceptor sat.)—Briefly, kinetic parameters were determined at 20° C. in a UV-Star 96-well flat bottom plate (Greiner Bio-One, #655801) by continuous monitoring of absorbance at 282 nm using a SpectraMax M5 instrument (Molecular Devices). As for SAM experiments, the measurements consisted of two experimental subsets: MTase reactions (both 8-aza-SAM and acceptor added) and MTase blanks (8-aza-SAM was added without acceptor to account for natural 8-aza-SAM decomposition). The 250-μL (60-μL) reaction mixtures from a same row contained 50 mM phosphate buffer pH=7.60 (7.80), 1 mM βME, 10% glycerol (5% glycerol, 100 μM MgCl2), 4 μM coupling deaminase TM0936, either 1.5 μM CePRMT5 or 402 nM TbPRMT7 (or 610 nM GsSDMT) and various 8-aza-SAM concentrations. […] Initial rates were first corrected for background signal, then plotted against 8-aza-SAM concentrations and fitted to the Michaelis-Menten equation to yield corresponding kinetic parameters.

CePRMT5 = molecular target: T2, CePRMT5 (Caenorhabditis elegans, UniProt P46580); assay: 1-Step EZ-MTase UV-based coupled assay, CePRMT5 kinetics; assay type: biochemical; settings: for Km / kcat: pH=7.60, co-substrate saturating, 4 μM TM0936, 263 nm (282 nm for 8-aza-SAM); for catalytic efficiency: saturating H4 peptide
T2 construct: made in house
T2 sequence (P46580 1-734): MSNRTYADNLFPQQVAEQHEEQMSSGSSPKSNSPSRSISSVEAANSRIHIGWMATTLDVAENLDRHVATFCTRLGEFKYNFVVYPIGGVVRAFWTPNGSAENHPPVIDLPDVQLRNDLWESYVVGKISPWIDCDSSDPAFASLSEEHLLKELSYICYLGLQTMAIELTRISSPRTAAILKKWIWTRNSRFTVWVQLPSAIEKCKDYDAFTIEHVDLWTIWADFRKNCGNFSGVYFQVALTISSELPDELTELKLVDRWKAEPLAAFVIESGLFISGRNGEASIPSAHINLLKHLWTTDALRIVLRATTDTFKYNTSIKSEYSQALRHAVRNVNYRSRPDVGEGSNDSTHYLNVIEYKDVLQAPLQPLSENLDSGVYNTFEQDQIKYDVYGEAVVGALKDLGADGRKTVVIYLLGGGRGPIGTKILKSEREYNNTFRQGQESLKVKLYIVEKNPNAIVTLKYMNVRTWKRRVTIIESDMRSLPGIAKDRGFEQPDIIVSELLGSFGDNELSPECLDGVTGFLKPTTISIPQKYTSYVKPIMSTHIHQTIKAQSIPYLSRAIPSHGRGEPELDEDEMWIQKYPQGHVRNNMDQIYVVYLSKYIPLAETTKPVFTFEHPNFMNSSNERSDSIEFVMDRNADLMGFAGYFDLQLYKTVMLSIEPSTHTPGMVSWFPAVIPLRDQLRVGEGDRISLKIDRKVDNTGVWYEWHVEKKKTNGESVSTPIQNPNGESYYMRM
Description: The 250-μL reaction mixtures from a same row contained 50 mM phosphate buffer pH=7.60, 1 mM βME, 10% glycerol, 4 μM coupling deaminase TM0936, 300 nM CePRMT5 and various peptide concentrations (5-180 μM; in the first well, peptide acceptor was omitted to account for background signal—natural decomposition of SAM). The methyltransfer reactions started upon addition of SAM (25 μM saturating final concentration) and absorbance was recorded.
The 250-μL reaction mixtures from a same row contained 50 mM phosphate buffer pH=7.60, 1 mM βME, 10% glycerol, 4 μM coupling deaminase TM0936, 300 nM CePRMT5 and various SAM concentrations (2.35-47.0 μM). […] Initial rates were first corrected for background signal, then plotted against SAM concentrations and fitted to the Morrison kinetic model to yield corresponding kinetic parameters.
as §1

Row | SMILES | substrate inhibition (inhibitory behavior of the analog) (GsSDMT) | Km (GsSDMT) | kcat (GsSDMT) | substrate inhibition constant (Ks / Kf) (CePRMT5; 282 nm, pH=7.60, H4(1-20) 104 μM) | Km (CePRMT5) | kcat (CePRMT5) | catalytic efficiency (CePRMT5)
1 | C[S+](CC[C@H](N)C(=O)O)C[C@H]1O[C@@H](n2nnc3c(N)ncnc32)[C@H](O)[C@@H]1O (stereo partly drawn) [8-aza-SAM, S-8-aza-adenosyl-L-methionine] | not observed | 443 ± 33 µM | 1.35 ± 0.05 s⁻¹ | 67 ± 42 µM | 35 ± 19 µM | 0.00417 ± 0.0017 s⁻¹ | 120 M⁻¹ s⁻¹
2 | C[S+](CC[C@H](N)C(=O)O)C[C@H]1O[C@@H](n2cnc3c(N)ncnc32)[C@H](O)[C@@H]1O (stereo partly drawn) [SAM, S-adenosyl-L-methionine] |  | 95 ± 18 µM | 0.7 ± 0.033 s⁻¹ |  | 6.8 ± 0.3 µM | 0.00886 ± 0.00014 s⁻¹ | 1300 M⁻¹ s⁻¹
